According to a melting point compilation (Tetko et al.; mined from patent text by program, amines drawn as free bases though some values may be those of a salt):

First: CC(C)(C)c1cc(C(=O)Sc2ccccn2)cc(C(C)(C)C)c1
Second: COc1c(C)c(C(O)(c2cccnc2)C(C)C)c(OC)c2ccccc12 (stereo not given)
The melting point of the first is lower: 73 to 74 °C for the first, 130 to 131 °C for the second.

Compared with CCCCCc1ccccc1C=CC=C1SC(=S)N(CC(=O)O)C1=O, COc1ccc2ccc(C(=O)CNC(=O)Cc3ccccc3)cc2c1 is lower in melting point: 203 to 207 °C for the first, 148 to 150 °C for the second.

Compared with Cc1cc(-c2nn(C3CCCC3)c3c(F)cccc23)ccc1O, O=C(c1ccccc1)c1cccnc1-c1nc(NC2CCCCC2)c2ccccc2n1 is higher in melting point: 107 °C for the first, 204 to 208 °C for the second.

First: Fc1ccc(Cn2c(NC3CCN(CCNc4nc5ccccc5n4Cc4ccc(Cl)c(Cl)c4)CC3)nc3ccccc32)cc1
Second: CCCn1nc2c(N)nc3ccccc3c2c1NCc1ccccc1
The melting point of the first is lower: 113 °C for the first, 160 to 161 °C for the second.

Compared with COC(=O)COc1ccc(SCc2cc(-c3ccc(Cl)cc3)on2)c2c1CCC2, COc1ccc(-c2nc(N)ncc2-c2ccc(=O)[nH]n2)cc1OC is higher in melting point: 112 to 114 °C for the first, 225 °C for the second.

First: COc1ncc(CN2C(=O)C3(COc4cc5c(cc43)OCO5)c3ccccc32)s1 (stereo not given)
Second: CCOc1ccc2cc(-c3nc(-c4ccccc4)no3)c(=O)oc2c1
The melting point of the first is lower: 164 to 166 °C for the first, 229 °C for the second.

Compared with CC(=O)Nc1ccc(C(=O)NC2=Nc3cc(N4CCOCC4)ccc3C3=NCCN23)cn1, CC(=O)Nc1ccc2c3c1c(=O)c(C(=O)O)cn3C1CCCCC21 (stereo not given) is lower in melting point: 228 °C for the first, 187 to 190 °C for the second.

Compared with Cc1nnc2n1CC(=O)N(C)c1ccc(Cl)cc1-2, Cc1nc(-c2ccc(Cl)cc2Cl)c(Br)n1C(F)F is lower in melting point: 228 to 230 °C for the first, 81 to 83 °C for the second.

Compared with COc1ccc(NC(=O)CBr)c(C(=O)O)c1, COC(=O)Cc1ccc(C(C)=O)s1 is lower in melting point: 172 to 173 °C for the first, 43 to 44 °C for the second.

Compared with O=S1(=O)N=Cc2cccc(Cl)c21, Cc1cc(C#N)cc(C(=O)Nc2ccc(F)c(F)c2)n1 is higher in melting point: 162 to 164 °C for the first, 170 °C for the second.

First: CCC1OCCn2c1nc(C(=O)NCc1ccc(F)cc1-n1cncn1)c(OCc1ccccc1)c2=O (stereo not given)
Second: CC(C)(C)OC(=O)NC(Cc1ccc(OCc2ccccc2)cc1)CN1CCOCC1 (stereo not given)
The melting point of the first is higher: 155 to 157 °C for the first, 98 to 99 °C for the second.

First: CCCCn1c(C(=O)c2cc(C)cc(C=CC#N)c2)c(C(C)C)c(=O)[nH]c1=O
Second: Cc1cccc(C(Oc2ccc3oc(CCCO)cc3c2)c2cocn2)c1 (stereo not given)
The melting point of the first is higher: 164 to 165 °C for the first, 101 to 102 °C for the second.

First: CSC(C)(C)C(=O)N[C@@H](CS)C(=O)O
Second: CON(C)C(=O)[C@@H](CO)NC(=O)OC(C)(C)C
The melting point of the first is lower: 110 to 112 °C for the first, 115 to 116 °C for the second.

Compared with N#CC1=CCCc2ccc(Br)cc21, N#CC1c2ccc(Br)cc2CCC1c1ccc(F)cc1 (stereo not given) is higher in melting point: 113 to 115 °C for the first, 146 °C for the second.

First: O=C(c1ccccc1)C(F)c1ccccc1 (stereo not given)
Second: O=C(c1cccs1)N(CCCSc1ccncc1)c1ccccc1
The melting point of the first is lower: 50 to 51 °C for the first, 66 to 67 °C for the second.

Compared with CC(C)C(=O)N[C@H]1CC[C@H](CCN2CCN(c3nccc4c3OCC4)CC2)CC1, Cc1ccc(S(=O)(=O)N2CCC(NC(=O)Nc3ccc(OC(F)(F)F)cc3)CC2)cc1 is higher in melting point: 204 °C for the first, 205 to 207 °C for the second.

First: NS(=O)(=O)c1cc(C(=O)OCC(=O)N2CCC(CCO[N+](=O)[O-])CC2)c(NCc2ccco2)cc1Cl
Second: CCCCCCCC(=O)N(CCc1ccc(CCO)cc1)S(=O)(=O)c1ccc(Cl)cc1
The melting point of the first is higher: 170 °C for the first, 55 °C for the second.

Compared with COc1cc2[nH]nc(S(C)=O)c(=O)c2cc1OC (stereo not given), CC(=O)Oc1ccc(C(=O)OC2C=C(C)C(=O)CC(C)(C)C2O)cc1 (stereo not given) is lower in melting point: 303 °C for the first, 132 to 133 °C for the second.

First: CCc1nc(C)n2nc(C(=O)O)nc2c1Cc1ccc(-c2ccccc2-c2nnn[nH]2)cc1
Second: O=C(O)[C@H](Cc1ccc(C(F)(F)F)cc1)[C@@H](O)c1ccc(F)cc1F (racemic)
The melting point of the first is higher: 194 to 198 °C for the first, 120 to 121 °C for the second.

Compared with FC(F)(F)c1nc2nc(Cl)c(Cl)cc2[nH]1, CNC(=O)C1=CC(C)(C(F)(F)F)Oc2ccc([N+](=O)[O-])cc21 (stereo not given) is lower in melting point: 222 to 224 °C for the first, 196 to 197 °C for the second.
